The values that follow come from patent publication US6124078A, “Photo-decoloring dye, a binder resin composition containing the same and photo-recording material” (Konica Corporation, priority 1998, dated 2000).

Format in all cases: physicochemical
The nature of data set [1]: Solubility of dye in binder resin composition (polyvinyl butyral / methyl ethyl ketone), precipitation after a day at 15° C. The conditions noted are these: binder resin composition: polyvinyl butyral resin (Esrex BX-1) 100 mg, methyl ethyl ketone 3.0 ml; stood a day at 15° C. shielded from light. The protocol:
Mixing the following raw materials, a binder resin composition containing the photo-decoloring dye was prepared so as to obtain sample 3-1.
Photo-decoloring dye 7 0.3 mmol
Polyvinyl butyral resin (Esrex BX-1)
Methyl ethyl ketone 3.0 ml
Samples 3-2 to 3-12 were obtained in the same way in which sample 3-1 was obtained except replacing the photo-decoloring dye 7 by the following dyes described later. Solubility was evaluated by varying addition amount of each dye. The dyes except for comparative dyes show the photo-decoloring dyes according to the invention. The chemical structures of the comparative dyes A and B (these dyes are used in example 5) are shown below.
After preparing binder resin compositions in which addition amount of the photo-decoloring dyes was increased in serial turn, said binder resin compositions were aloowed to stand under the condition of shielding a light for a day at 15° C. When slight precipitation of the photo-decoloring dyes in said binder resin compositions was observed, the solubility of said photo-decoloring dyes was evaluated as unacceptable.
The solubility of the photo-decoloring dyes was evaluated based on the following criteria in response to the addition amount of said photo-decoloring dyes.
4: Precipitation was not observed in an addition amount of not less than 0.9 mmol.

The nature of data set [2]: Storage stability of photo-recording material (60° C., 200 hours, light-shielded). The conditions noted are these: (density after storage/initial density)×100, packed with black paper. An excerpt:
The binder resin composition containing the photo-decoloring dye used for making sample 3-1 was coated on a polyethylenenaphthalate base having thickness of 4.0 μm by using a wire bar in a coating amount of 2.5 g/m^2 after drying so as to obtain a photo-recording material consisting of a photo-decoloring layer on the polyethylenenaphthalate film. On a back side of said polyethylenenaphthalate base was coated a nitrocellulose layer containing a silicone modified urethane resin (SP-2105, produced by Dainichiseika Co., Ltd.) as a sticking-preventing layer. Thus obtained sample is termed sample 4-1.
By replacing the photo-decoloring dye 7 used in sample 4-1 by such photo-decoloring dyes as described later, sample 4-2 to 4-16 were obtained. Both photo-decoloring ability and storage stability of these dyes were evaluated.
Photo-shielded samples by packing them with black paper were allowed to stand at 60° C. in a thermostatic oven for 200 hours. Storage stability was indicated as follows.
Storage stability=(density after storage/initial density)×100 (%)

Data set [3] is described as follows: Absorption maximum and absorption coefficient in ethyl acetate.

In the case of `CCCCCCCCCCCCS(=O)(=O)CCCc1nnc2n1N=C(C(C)(C)C)C2=Nc1cc(Cl)c(O)c(Cl)c1` [compound 7], the Solubility in data set [1] is reported as 4 (Precipitation was not observed in an addition amount of not less than 0.9 mmol.). This molecule returned a Storage stability in data set [2] of 88%. In data set [3], this molecule showed a εmax of 93700 and a λmax of 556 nm.

Consider `CCCCCCCCCCCCS(=O)(=O)NCCc1nc2c(=Cc3cc(Cl)c(O)c(Cl)c3)c(C(C)(C)C)nn2n1` [compound 47], for which, in data set [1], the Solubility was 4 (Precipitation was not observed in an addition amount of not less than 0.9 mmol.). For the same molecule, in data set [2], the Storage stability is 82%.

Take `CCCCCCCCCCCCC(Oc1ccc(OC(C)=O)c(C(C)(C)C)c1)C(=O)NCCc1nnc2n1N=C(C)C2=Nc1cc(Cl)c(O)c(Cl)c1` (stereo not drawn) [compound 17]: the Solubility in data set [1] was 4 (Precipitation was not observed in an addition amount of not less than 0.9 mmol.). The same molecule displayed a Storage stability in data set [2] of 85%.

Consider `CCCCc1nnc2c(=Cc3cc(Cl)c(O)c(Cl)c3)c(C(C)(C)C)nn12` [B], for which the Solubility in data set [1] is on record as 2 (Slight precipitation was observed in an addition amount of not less than 0.3 to less than 0.6 mmol.). In data set [2], the Storage stability was 20%.

Turning to `CCCCCCCCCCCCOc1ccc(S(=O)(=O)NCC(C)(C)c2nnc3n2N=C(C(C)(C)C)C3=Nc2cc(Cl)c(O)c(Cl)c2)cc1` [compound 13], the Solubility in data set [1] is reported as 3 (Slight precipitation was observed in an addition amount of not less than 0.6 to less than 0.9 mmol.). The Storage stability in data set [2] turned out to be 75%.

As to `CCC(C)(C)c1ccc(OCC(=O)Nc2ccnc(-c3cnc4n3N=C(C(C)(C)C)C4=Nc3cc(Cl)c(O)c(Cl)c3)c2)c(C(C)(C)CC)c1` [compound 33], the Solubility in data set [1] is listed as 4 (Precipitation was not observed in an addition amount of not less than 0.9 mmol.). The Storage stability in data set [2] amounted to 77%.

Take `CN1/C(=C\C=C\C2=[N+](C)c3ccccc3C2(C)C)C(C)(C)c2ccccc21` [F]: in data set [2], the Storage stability is 15%.

In data set [3], `CCCCCCCCCCCCS(=O)(=O)CCCc1nnc2c(=Cc3cc(Cl)c(O)c(Cl)c3)c(C(C)(C)C)nn12` [compound 78] gave a εmax of 94800 and a λmax of 543 nm.

In data set [2], `CCN(CC)c1ccc(N=C2C(=O)N(c3ccccc3)N=C2C)cc1` [D] registered a Storage stability of 80%.

Molecule `CCN(CC)c1ccc(N=C2C=CC(=O)c3ccccc32)cc1` [E] yielded a Storage stability in data set [2] of 85%.

In data set [2], `CCN(CC)c1ccc(N=C(C(C)=O)C(=O)Nc2ccccc2)c(C)c1` [C] showed a Storage stability of 95%.

In the case of `CCC(Oc1ccc(C(C)(C)CC)cc1C(C)(C)CC)C(=O)NCCC(C)c1nnc2n1N=C(C(C)(C)C)C2=Nc1cc(Cl)c(O)c(Cl)c1` (stereo not drawn) [compound 11], the Solubility in data set [1] was 4 (Precipitation was not observed in an addition amount of not less than 0.9 mmol.). In addition, the Storage stability in data set [2] stood at 80%.

`CCCCC(Oc1ccc(C(C)(C)CC)cc1C(C)(C)CC)C(=O)Nc1ccc2nc3n(c2c1)N=C(C)C3=Nc1cc(Cl)c(O)c(Cl)c1` (stereo not drawn) [compound 32]: in data set [1], the Solubility is 3 (Slight precipitation was observed in an addition amount of not less than 0.6 to less than 0.9 mmol.). Also, the Storage stability in data set [2] was found to be 90%.

As for `CCCCCCCCCCCCS(=O)(=O)CCCc1nnc2c(=Cc3cc(Cl)c(O)c(Cl)c3)c(C(C)(C)C)nn12` [compound 58], in data set [1], the Solubility is listed as 4 (Precipitation was not observed in an addition amount of not less than 0.9 mmol.). The molecule further showed a Storage stability in data set [2] of 80%. In data set [3], the εmax came out at 105300 and the λmax turned out to be 540 nm.

Take `CCCCc1nnc2n1N=C(C(C)(C)C)C2=Nc1ccc(O)cc1` [A]: in data set [1], the Solubility is on record as 2 (Slight precipitation was observed in an addition amount of not less than 0.3 to less than 0.6 mmol.). For the same molecule, the Storage stability in data set [2] amounted to 18%.
